# From BindingDB's records for doi:10.1007/s00044-013-0797-8 (n/a, 2013)
# Where “and” joins values, the source holds several entries; their conditions need not be identical. Equal values may be shown once.
# Target: T1, Tyrosine-protein phosphatase non-receptor type 1 (Homo sapiens, UniProt P18031)
# T1 sequence (P18031 whole entry): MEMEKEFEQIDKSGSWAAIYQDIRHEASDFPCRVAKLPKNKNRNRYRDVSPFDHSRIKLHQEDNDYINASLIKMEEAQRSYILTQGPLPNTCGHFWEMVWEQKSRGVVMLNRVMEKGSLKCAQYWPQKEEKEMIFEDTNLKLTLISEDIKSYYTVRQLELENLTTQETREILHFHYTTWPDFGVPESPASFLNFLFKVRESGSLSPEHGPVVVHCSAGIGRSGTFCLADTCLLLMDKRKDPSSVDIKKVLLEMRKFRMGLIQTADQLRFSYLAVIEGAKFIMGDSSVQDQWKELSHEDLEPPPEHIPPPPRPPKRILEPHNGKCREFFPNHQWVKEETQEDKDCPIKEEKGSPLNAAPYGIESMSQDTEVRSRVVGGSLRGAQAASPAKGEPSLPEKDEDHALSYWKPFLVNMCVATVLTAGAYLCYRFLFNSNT
# Assay: Non-competitive reversible inhibition of human PTP1B
row,SMILES,IC50
1,CCCCc1ccc(-n2nc3c(c(C#N)c2=N)CC(C)(C)OC3)cc1,7 µM
2,CC1(C)Cc2c(nn(-c3ccccc3F)c(=N)c2C#N)CO1,2.4 µM
3,COc1ccccc1-n1nc2c(c(C#N)c1=N)CC(C)(C)OC2,6.19 µM and 6.2 µM
4,CC1(C)Cc2c(nn(-c3ccc(CCO)cc3)c(=N)c2C#N)CO1,2.9 µM
5,CC1(C)Cc2c(nn(-c3cccc(Oc4ccccc4)c3)c(=N)c2C#N)CO1,3.9 µM
6,CC1(C)Cc2c(nn(-c3ccccc3C(F)(F)F)c(=N)c2C#N)CO1,3.9 µM
7,N#Cc1c2c(nn(-c3ccc(F)cc3)c1=N)CSCC2,2 µM
8,CCc1ccc(-n2nc3c(c(C#N)c2=N)CC(C)(C)OC3)cc1,2.8 µM

# Second part, the compound after the results:
row,IC50,SMILES
1,8.2 µM,CC(C)c1cccc(-n2nc3c(c(C#N)c2=N)CC(C)(C)OC3)c1
2,2 µM,CC(C)c1ccccc1-n1nc2c(c(C#N)c1=N)CCSC2
3,6.1 µM,CC(=O)Nc1ccc(-n2nc3c(c(C#N)c2=N)CC(C)(C)OC3)cc1
4,2.8 µM,CC1(C)Cc2c(nn(-c3cccc(C(F)(F)F)c3)c(=N)c2C#N)CO1
5,2.9 µM,CC1(C)Cc2c(nn(-c3ccccc3N3CCOCC3)c(=N)c2C#N)CO1
6,2.4 µM,CC1(C)Cc2c(nn(-c3cccc(CO)c3)c(=N)c2C#N)CO1
7,8.2 µM,CCc1cccc(-n2nc3c(c(C#N)c2=N)CC(C)(C)OC3)c1
